# Test results from US20080076147A1, “BIOFILM SAMPLING DEVICE” (BOARD OF TRUSTEES OF SOUTHERN ILLINOIS UNIVERSITY, priority 2006, published 2008).
# What was measured:
# Acinetobacter baumanii = assay: Biocide kill of planktonic cells and biofilm on vascular catheter (serum flow model); type: cell-based; settings: planktonic cells on vascular catheter, 5 to 60 minutes, FIG. 10A
# Description: (§1) A system as shown in FIG. 6 was used in this study. Serum and a biocide were placed in sealed bottles as the first fluid source 505 and the second fluid source 509, respectively. The fluid sources were connected to a pump 515 by conventional IV tubing. A second pump 531 was used to deliver the fluid mixture to the vascular catheter 3 positioned in the sampling apparatus 1.
# Initially, only the first fluid source, serum inoculated with Acinetobacter baumanii (10×10^9 CFU/ml), was used to contaminate the catheter with planktonic cells. The inoculated fluid continuously flowed through IV tubing directly through the catheter for […] to form a layer of planktonic cells on the catheter. […] The segments were transferred to test tubes containing one ml saline and the adherent cells were dislodged by sonication in an aquasonic device, vortexed for about one minute, and then counted on Tropic soya Agar. The number of viable cells were determined for each catheter and were compared to the number of viable cells in control samples (i.e., biocide-free serum) to calculate the biocide concentration required to kill 50% of the bacteria in the biofilm at the same time interval. […] In addition to plating cells on agar and counting the number of colonies, the amount of biofilm formed can be determined by a semiquantitive microtiter plate method. […]
# Burkholderia cepacia = assay: as above; type: cell-based; settings: 5 to 60 minutes; for biofilm kill (biocide concentration required to kill 50% of bacteria that grew in the biofilm): biofilm on vascular catheter, FIG. 11B; for planktonic cell kill (biocide concentration required to kill 100% of bacteria present as planktonic cells): planktonic cells on vascular catheter, FIG. 11A
# Description: as §1
# (§2) Initially, only the first fluid source, serum inoculated with Acinetobacter baumanii (10×10^9 CFU/ml), was used to contaminate the catheter with planktonic cells. The inoculated fluid continuously flowed through IV tubing directly through the catheter for […] to form a layer of planktonic cells on the catheter. Fluid flow was then stopped and the tubing was then reconfigured as shown in FIG. 6 so that the second fluid source could be introduced. In these test runs, the first fluid source was inoculated with the same concentration of bacteria, and the second fluid source was a biocide (16-16,000 ppm) selected from hydrogen peroxide (H2O2), sodium hypochlorite (SHC), peracetic acid (PAA) and gluteraldehyde (GLT). The fluid mixture continuously flowed through the catheter for 5, 10, 15, 30, 45 or 60 minutes before fluid flow was discontinued to determine bacterial resistance of the planktonic cells on the catheter. In all, six runs were completed for each of four different biocides. After each run, the test catheter was then cut aseptically into 1 cm segments. The segments were transferred to test tubes containing one ml saline and the adherent cells were dislodged by sonication in an aquasonic device, vortexed for about one minute, and then counted on Tropic soya Agar. The number of viable cells were determined for each catheter and were compared to the number of viable cells in control samples (i.e., biocide-free serum) to calculate the biocide concentration required to kill 50% of the bacteria in the biofilm at the same time interval. Instead of saline, other appropriate buffer solutions can be used. In addition to plating cells on agar and counting the number of colonies, the amount of biofilm formed can be determined by a semiquantitive microtiter plate method. For example, adherent cells can be dislodged from test catheters as described above. The aliquots of solutions containing the cells from each catheter piece can then be added separately to wells of a 96-well tissue culture plate and incubated at 37° C. for 24 h. After several (e.g., three) washes with PBS, any remaining biofilm is stained with safranin O dye for 1 min and washed with PBS again. Optical density at 492 nm is determined with a 96-well plate spectrometer reader. For each time point, an aliquot without biocide is a positive control. Percent inhibition of biofilm accumulation can be determined from the formula (A492positive−A492biocide)/(A492positive−A492)×100%, Such plating methods are well known to one skilled in the art and could be modified as desired for analysis of the biofilm.
# (§3) For determination of the bacterial resistance of the biofilm formed on the catheter, the method described above was repeated using the same conditions except that the inoculated fluid continuously flowed through the catheter for two hours before fluid flow was discontinued to form a biofilm on the catheter.
# The experiment was repeated as described above, except that Burkholderia cepacia (1×10^9 CFU/ml) was used to inoculate the serum.
# Escherichia coli = assay: as above; type: cell-based; settings: biofilm on vascular catheter, over all time periods (5 to 60 minutes), FIG. 12B
# [1] = test system: methicillin resistant Staphylococcus aureus (MRSA); assay: as above; type: cell-based; settings: biofilm on vascular catheter, 5 to 60 minutes, FIG. 14B
# Staphylococcus epidermis = assay: as above; type: cell-based; settings: 5 to 60 minutes; for biofilm kill (biocide concentration required to kill 50% of bacteria that grew in the biofilm): biofilm on vascular catheter, FIG. 15B; for planktonic cell kill (biocide concentration required to kill 100% of bacteria present as planktonic cells): planktonic cells on vascular catheter, FIG. 15A
# Description: as §1, §2, §3
# The experiment was repeated as described above, except that Staphylococcus epidermis (1×10^9 CFU/ml) was used to inoculate the serum.
# Pseudomonas aeruginosa = assay: as above; type: cell-based; settings: 5 to 60 minutes; for biofilm kill (biocide concentration required to kill 50% of bacteria that grew in the biofilm): biofilm on vascular catheter, FIG. 16B; for planktonic cell kill (biocide concentration required to kill 100% of bacteria present as planktonic cells): planktonic cells on vascular catheter, FIG. 16A
# Description: as §1, §2, §3
# The experiment was repeated as described above, except that Pseudomonas aeruginosa (1×10^9 CFU/ml) was used to inoculate the serum.
# [2] = test system: Stenotrophomonas maltophilia; assay: as above; type: cell-based; settings: 5 to 60 minutes; for biofilm kill (biocide concentration required to kill 50% of bacteria that grew in the biofilm): biofilm on vascular catheter, FIG. 17B; for planktonic cell kill (biocide concentration required to kill 100% of bacteria present as planktonic cells): planktonic cells on vascular catheter, FIG. 17A
# Description: as §1, §2, §3
# The experiment was repeated as described above, except that Stenotrophomonas maltophilia (1×10^9 CFU/ml) was used to inoculate the serum.
# MRSA [3] = assay: Effect of albumin coating on colonization of MRSA in endotracheal tube model; type: cell-based, Staphylococcus aureus
# Description: (§4) A system as shown in FIG. 7 was used in this study. Artificial saliva was placed in a sealed bottle as the second fluid source 609. The first fluid source was provided by an oxygen tank used to saturate the artificial saliva with oxygen. A pump 631 was used to deliver the saliva to an endotracheal tube 3 positioned in the sampling apparatus 1. Each endotracheal tube was pretreated by coating the tube with undiluted bovine serum albumin, except for the untreated tube used as a control.
# Initially, only the second fluid source, saliva inoculated with MRSA (1×10^9 CFU/ml), was used to contaminate the endotracheal tube. The inoculated fluid continuously flowed through IV tubing directly through the endotracheal tube for 60 minutes to form a biofilm on the tube. Fluid flow was then stopped and the tubing was then reconfigured as shown in FIG. 7 so that oxygen could be introduced. In these test runs, 100 mg/L mucin was added to the saliva. The fluid mixture continuously flowed through the catheter for 48 hours before fluid flow was discontinued to determine the effect of albumin on the colonization of MRSA on the endotracheal tube. […] The segments were transferred to test tubes containing one ml saline and the adherent cells were dislodges by sonication in an aquasonic device, vortexed for about one minute, and then counted on Tropic soya Agar. […]
# Enterococcus faecalis = assay: Biocide kill of planktonic cells and biofilm on vascular catheter (serum flow model); type: cell-based; settings: at 5 minutes of treatment; phase (planktonic or biofilm) not specified, FIGS. 13A-B
# MRSA [4] = assay: Mucin in controlling colonization of MRSA in endotracheal tube model; type: cell-based, Staphylococcus aureus; settings: for log10 reduction of colonized MRSA: 48 hours flow, endotracheal tube
# Description: as §4, with “1.” for “1. Each endotracheal tube was pretreated by coating the tube with undiluted bovine serum albumin, except for the untreated tube used as a control.”
# Initially, only the second fluid source, saliva inoculated with MRSA (1×10^9 CFU/ml), was used to contaminate the endotracheal tube. The inoculated fluid continuously flowed through IV tubing directly through the endotracheal tube for 60 minutes to form a biofilm on the tube. Fluid flow was then stopped and the tubing was then reconfigured as shown in FIG. 7 so that oxygen could be introduced. In these test runs, 100 mg/L mucin was added to the saliva. The fluid mixture continuously flowed through the catheter for 48 hours before fluid flow was discontinued to determine the effect of mucin on the bacterial resistance of the biofilm formed on the endotracheal tube. In all, four runs were completed at 0 mg/L mucin (control), 100 mg/L mucin, 500 mg/L mucin and 1000 mg/L mucin. After each run, the endotracheal tube was cut aseptically into one cm segments. The segments were transferred to test tubes containing one ml saline and the adherent cells were dislodges by sonication in an aquasonic device, vortexed for about one minute, and then counted on Tropic soya Agar.
# The results of this study are shown in FIG. 18, which depicts the number of MRSA colony forming units per unit of surface area (CFU/cm^2) on the tube for each mucin concentration. […] The log10 reduction of colonized MRSA was 0.5, 3 (P=0.0001) and 3.5 (P=0.0001) at 100, 500 and 1000 mg/L of mucin, respectively. […] This pathogen plays a significant role in the onset of […] associated pneumonia by causing sustained tracheal colonization.
Compound,planktonic cell kill (biocide concentration required to kill 100% of bacteria present as planktonic cells) (Acinetobacter baumanii),biofilm kill (biocide concentration required to kill 50% of bacteria that grew in the biofilm) (Burkholderia cepacia),planktonic cell kill (biocide concentration required to kill 100% of bacteria present as planktonic cells) (Burkholderia cepacia),biofilm kill (biocide concentration required to kill 50% of bacteria that grew in the biofilm) (Escherichia coli),biofilm kill (biocide concentration required to kill 50% of bacteria that grew in the biofilm) [1],biofilm kill (biocide concentration required to kill 50% of bacteria that grew in the biofilm) (Staphylococcus epidermis),planktonic cell kill (biocide concentration required to kill 100% of bacteria present as planktonic cells) (Staphylococcus epidermis),biofilm kill (biocide concentration required to kill 50% of bacteria that grew in the biofilm) (Pseudomonas aeruginosa),planktonic cell kill (biocide concentration required to kill 100% of bacteria present as planktonic cells) (Pseudomonas aeruginosa),biofilm kill (biocide concentration required to kill 50% of bacteria that grew in the biofilm) [2],planktonic cell kill (biocide concentration required to kill 100% of bacteria present as planktonic cells) [2],"MRSA colonization of endotracheal tubes (in words) (MRSA [3]; albumin coating of endotracheal tube, FIG. 19)","log10 increase of colonized cells (MRSA [3]; whole tube coating with albumin, 100 mg/L mucin in saliva, 48 hours flow, versus uncoated tube, P<0.0001)",effectiveness as compared to the other biocides (Enterococcus faecalis),log10 reduction of colonized MRSA (MRSA [4]; 100 mg/L of mucin in oxygen-saturated artificial saliva),"log10 reduction of colonized MRSA (MRSA [4]; 500 mg/L of mucin in oxygen-saturated artificial saliva, P=0.0001)","log10 reduction of colonized MRSA (MRSA [4]; 1000 mg/L of mucin in oxygen-saturated artificial saliva, P=0.0001)","colonization of MRSA on endotracheal tubes (in words) (MRSA [4]; mucin 100-1000 mg/L in artificial saliva, in vitro, FIG. 18)"
"O=CCCCC=O [GLT, gluteraldehyde]",most effective,nearly identical effect,performed comparably and were more effective than hydrogen peroxide,least effective,PAA>GLT>hydrogen peroxide>SHC,least effective,performed similarly in planktonic cell kill and outperformed hydrogen peroxide,PAA>SHC>GLT>hydrogen peroxide,performed comparably and were more effective than hydrogen peroxide and SHC,nearly identical effect,somewhat more effective in killing planktonic cells as compared to SHC or PAA and considerably more effective than hydrogen peroxide,,,,,,,
bovine serum albumin,,,,,,,,,,,,increased significantly,2.4 log10,,,,,
OO [hydrogen peroxide],,nearly identical effect,"SHC, PAA and GLT performed comparably and were more effective than hydrogen peroxide",,PAA>GLT>hydrogen peroxide>SHC,performed comparably,"SHC, PAA and GLT performed similarly in planktonic cell kill and outperformed hydrogen peroxide",PAA>SHC>GLT>hydrogen peroxide,PAA and GLT performed comparably and were more effective than hydrogen peroxide and SHC,nearly identical effect,GLT was somewhat more effective in killing planktonic cells as compared to SHC or PAA and considerably more effective than hydrogen peroxide,,,relatively uneffective,,,,
mucin,,,,,,,,,,,,,,,0.5 log10,3 log10,3.5 log10,effective in decreasing the colonization of MRSA on endotracheal tubes
"OCl [SHC, sodium hypochlorite]",,nearly identical effect,performed comparably and were more effective than hydrogen peroxide,,PAA>GLT>hydrogen peroxide>SHC,performed comparably,performed similarly in planktonic cell kill and outperformed hydrogen peroxide,PAA>SHC>GLT>hydrogen peroxide,PAA and GLT performed comparably and were more effective than hydrogen peroxide and SHC,nearly identical effect,GLT was somewhat more effective in killing planktonic cells as compared to SHC or PAA,,,,,,,
